Active and inactive are the calls of the source. The calls are words filed in the database; no cut-off is given here.
Experiments:
SW-620 = test: Growth inhibition of human SW620 cells after 48 hrs by SRB staining method; format: functional; conditions: SW-620, 48 h
786-0 = test: Growth inhibition of human 786-0 cells after 48 hrs by SRB staining method; format: functional; conditions: 786-0, 48 h
EKVX = test: Growth inhibition of human EKVX cells after 48 hrs by SRB staining method; format: functional
DU-145 = test: Growth inhibition of human DU145 cells after 48 hrs by SRB staining method; format: functional; conditions: DU-145, 48 h
[1] = target: T1, Dihydrofolate reductase (Homo sapiens) (UniProt P00374); test: Inhibition of human dihydrofolate reductase at 10 uM
T1 sequence (whole entry): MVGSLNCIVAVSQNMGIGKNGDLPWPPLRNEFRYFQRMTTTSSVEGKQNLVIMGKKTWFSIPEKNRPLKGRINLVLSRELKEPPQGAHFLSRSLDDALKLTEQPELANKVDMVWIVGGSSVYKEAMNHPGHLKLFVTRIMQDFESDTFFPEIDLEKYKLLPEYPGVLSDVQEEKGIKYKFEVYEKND

MOLT-4 = test: Growth inhibition of human MOLT4 cells after 48 hrs by SRB staining method; format: functional; conditions: MOLT-4, 48 h
HT-29 = test: Growth inhibition of human HT29 cells after 48 hrs by SRB staining method; format: functional; conditions: HT-29, 48 h
SK-OV-3 = test: Growth inhibition of human SKOV3 cells after 48 hrs by SRB staining method; format: functional; conditions: SK-OV-3, 48 h
SNB-75 = test: Growth inhibition of human SNB75 cells after 48 hrs by SRB staining method; format: functional; conditions: SNB-75, 48 h
COLO 205 = test: Growth inhibition of human COLO205 cells after 48 hrs by SRB staining method; format: functional; conditions: COLO 205, 48 h
SF-295 = test: Growth inhibition of human SF295 cells after 48 hrs by SRB staining method; format: functional; conditions: SF-295, 48 h
[2] = Growth inhibition of human HS 578T cells after 48 hrs by SRB staining method; format: functional
SR = test: Growth inhibition of human SR cells after 48 hrs by SRB staining method; format: functional
HOP-92 = test: Growth inhibition of human HOP92 cells after 48 hrs by SRB staining method; format: functional; conditions: HOP-92, 48 h
SK-MEL-2 = test: Growth inhibition of human SK-MEL-2 cells after 48 hrs by SRB staining method; format: functional; conditions: SK-MEL-2, 48 h
HCT-15 = test: Growth inhibition of human HCT15 cells after 48 hrs by SRB staining method; format: functional; conditions: HCT-15, 48 h
HL-60 = test: Growth inhibition of human HL60 cells after 48 hrs by SRB staining method; format: functional; conditions: HL-60, 48 h
BT-549 = test: Growth inhibition of human BT549 cells after 48 hrs by SRB staining method; format: functional; conditions: BT-549, 48 h
U-251 = test: Growth inhibition of human U251 cells after 48 hrs by SRB staining method; format: functional; conditions: U-251, 48 h
LOX IMVI = test: Growth inhibition of human LOX IMVI cells after 48 hrs by SRB staining method; format: functional
K562 = test: Growth inhibition of human K562 cells after 48 hrs by SRB staining method; format: functional; conditions: K562, 48 h
UACC-257 = test: Growth inhibition of human UACC257 cells after 48 hrs by SRB staining method; format: functional; conditions: UACC-257, 48 h
IGROV-1 = test: Growth inhibition of human IGROV1 cells after 48 hrs by SRB staining method; format: functional; conditions: IGROV-1, 48 h
NCI-H460 = test: Growth inhibition of human NCI-H460 cells after 48 hrs by SRB staining method; format: functional; conditions: NCI-H460, 48 h
Thymidylate synthase = target: T2, Thymidylate synthase (Lactobacillus casei, UniProt P00469)
T2 sequence (P00469 whole entry): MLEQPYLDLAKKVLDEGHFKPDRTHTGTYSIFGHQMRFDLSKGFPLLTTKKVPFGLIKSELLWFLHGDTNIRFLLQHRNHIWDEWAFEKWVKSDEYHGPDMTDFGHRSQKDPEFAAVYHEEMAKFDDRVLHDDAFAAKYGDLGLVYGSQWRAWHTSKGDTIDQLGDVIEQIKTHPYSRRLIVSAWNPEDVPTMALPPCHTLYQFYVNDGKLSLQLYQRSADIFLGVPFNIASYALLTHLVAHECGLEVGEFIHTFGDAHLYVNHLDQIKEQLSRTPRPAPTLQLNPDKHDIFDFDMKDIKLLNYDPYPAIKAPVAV
Description: Inhibition of Lactobacillus casei thymidylate synthase

[3] = read-out: pLC50 (the source's name) (converted)

Question: What does the source list for `Nc1cc(N)c2nc(-c3ccccc3)c(Nc3ccc(F)cc3)nc2c1`?
Answer: GI50 (SW-620): 13.5 µM; CC50 (SW-620; [3]): > 100 µM; TGI (SW-620; read-out: pTGI (converted)): 38.9 µM; GI50 (786-0): 17.4 µM; CC50 (786-0; [3]): > 100 µM; TGI (786-0; read-out: pTGI (converted)): 53.7 µM; GI50 (EKVX): 12 µM; CC50 (EKVX; [3]): 75.9 µM; TGI (EKVX; read-out: pTGI (converted)): 30.2 µM; GI50 (DU-145): 12 µM; CC50 (DU-145; [3]): 66.1 µM; TGI (DU-145; read-out: pTGI (converted)): 28.2 µM; Activity [1]: inactive; GI50 (MOLT-4): > 100 µM; CC50 (MOLT-4; [3]): > 100 µM; TGI (MOLT-4; read-out: pTGI (converted)): > 100 µM; GI50 (HT-29): 18.6 µM; TGI (HT-29; read-out: pTGI (converted)): 35.5 µM; GI50 (SK-OV-3): 40.7 µM; CC50 (SK-OV-3; [3]): > 100 µM; TGI (SK-OV-3; read-out: pTGI (converted)): > 100 µM; GI50 (SNB-75): 20.9 µM; TGI (SNB-75; read-out: pTGI (converted)): 41.7 µM; GI50 (COLO 205): 20.4 µM; TGI (COLO 205; read-out: pTGI (converted)): 56.2 µM; GI50 (SF-295): 14.5 µM; TGI (SF-295; read-out: pTGI (converted)): 32.4 µM; GI50 [2]: 19.1 µM; CC50 [2, 3]: > 100 µM; TGI ([2]; read-out: pTGI (converted)): 58.9 µM; GI50 (SR): 5.37 µM; GI50 (HOP-92): 13.2 µM; TGI (HOP-92; read-out: pTGI (converted)): 43.7 µM; GI50 (SK-MEL-2): 29.5 µM; TGI (SK-MEL-2; read-out: pTGI (converted)): > 100 µM; GI50 (HCT-15): 12.6 µM; TGI (HCT-15; read-out: pTGI (converted)): 38 µM; GI50 (HL-60): 11.2 µM; CC50 (HL-60; [3]): > 100 µM; TGI (HL-60; read-out: pTGI (converted)): > 100 µM; GI50 (BT-549): 12 µM; CC50 (BT-549; [3]): 63.1 µM; TGI (BT-549; read-out: pTGI (converted)): 26.9 µM; GI50 (U-251): 5.62 µM; TGI (U-251; read-out: pTGI (converted)): 20 µM; GI50 (LOX IMVI): 4.79 µM; TGI (LOX IMVI; read-out: pTGI (converted)): 18.2 µM; GI50 (K562): 5.01 µM; CC50 (K562; [3]): > 100 µM; TGI (K562; read-out: pTGI (converted)): > 100 µM; GI50 (UACC-257): 15.1 µM; TGI (UACC-257; read-out: pTGI (converted)): 28.8 µM; GI50 (IGROV-1): 16.6 µM; TGI (IGROV-1; read-out: pTGI (converted)): > 100 µM; GI50 (NCI-H460): 26.3 µM; TGI (NCI-H460; read-out: pTGI (converted)): > 100 µM; Ki (Thymidylate synthase): 3 µM
